{"source": "patent US20230225968A1", "about": "“PROCESS FOR PRODUCING VISIBLY CLEAR AQUEOUS CONSUMABLE PRODUCTS” (CHAVAN, Neha, priority 2020, published 2023)", "origin": "cited, not measured here", "conditions": "oil-based delivery systems; humans"}
{"smiles": "C=C(C)[C@@H]1CCC(C)=C[C@H]1c1c(O)cc(CCCCC)cc1O", "note": "[CBD, cannabidiol]", "values": [{"measurement": "total CBD absorbed", "result": 4, "unit": "%"}]}
